Experimental data reported in patent US20080026996A1, “Selective Vpac2 Receptor Reptide Agonists” (ELI LILLY AND COMPANY, priority 2004, published 2008).
Read-outs that look alike come from different tables or passages of the source. Where no end group is shown, it is not given here. [ ]: non-standard residue; d: D form. The star is where a group is joined. hArg = N=C(N)NCCCC[C@H](N)C(=O)O; Hexanoyl = CCCCCC(=O)*; Aib = CC(C)(N)C(=O)O

Legend:
human VPAC1 [1] = biological target: T1, human VPAC1 (Homo sapiens, UniProt P32241); assay: DiscoveRx cAMP in vitro potency, CHO-PO cells transiently transfected with human VPAC1 receptor; type: cell-based; parameters: expressed in transfected cells; host or cells: CHO-PO, transient (Lipofectamine)
T1 sequence (P32241 31-457): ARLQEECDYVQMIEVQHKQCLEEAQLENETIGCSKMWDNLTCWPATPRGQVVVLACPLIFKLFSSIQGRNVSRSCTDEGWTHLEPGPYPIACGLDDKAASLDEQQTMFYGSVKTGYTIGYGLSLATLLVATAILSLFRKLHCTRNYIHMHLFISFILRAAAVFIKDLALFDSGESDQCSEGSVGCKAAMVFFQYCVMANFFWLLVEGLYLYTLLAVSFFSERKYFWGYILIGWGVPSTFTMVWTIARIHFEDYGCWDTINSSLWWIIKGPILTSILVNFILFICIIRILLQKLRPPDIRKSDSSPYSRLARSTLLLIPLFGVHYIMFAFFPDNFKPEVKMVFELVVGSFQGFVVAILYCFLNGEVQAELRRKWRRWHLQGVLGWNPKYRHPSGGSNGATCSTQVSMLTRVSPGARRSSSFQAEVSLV
Experimental: (§1) Also, the cells are washed twice. The cells are incubated in assay buffer plus IBMX for 15 minutes at room temperature. […] The stimuli are present for 30 minutes. Then, the assay buffer is gently removed. […] At day 3, the assay described above for the VPAC2 receptor cell line is performed.

human PAC1 [2] = biological target: T2, human PAC1 (Homo sapiens, UniProt P41586); assay: DiscoveRx cAMP in vitro potency, CHO-PO cells transiently transfected with human PAC1 receptor; type: cell-based; parameters: expressed in transfected cells; host or cells: CHO-PO, transient (Lipofectamine)
T2 sequence (P41586 21-468): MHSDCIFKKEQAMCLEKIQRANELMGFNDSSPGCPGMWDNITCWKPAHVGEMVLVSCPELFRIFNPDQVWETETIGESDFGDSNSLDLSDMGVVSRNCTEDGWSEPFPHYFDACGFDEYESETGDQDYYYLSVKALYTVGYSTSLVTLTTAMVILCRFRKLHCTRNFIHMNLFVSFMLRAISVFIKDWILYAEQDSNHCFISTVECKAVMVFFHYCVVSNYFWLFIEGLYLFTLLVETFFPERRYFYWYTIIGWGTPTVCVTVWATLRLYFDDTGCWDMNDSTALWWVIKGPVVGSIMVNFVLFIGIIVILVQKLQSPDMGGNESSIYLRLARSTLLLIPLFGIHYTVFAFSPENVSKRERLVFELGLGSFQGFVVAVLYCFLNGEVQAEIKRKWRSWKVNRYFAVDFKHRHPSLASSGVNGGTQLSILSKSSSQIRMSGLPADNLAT
Experimental: as §1

Normal Wistar rats = assay: Intravenous glucose tolerance test (IVGTT); type: in vivo, rat; details: IVGTT, insulin
Experimental: Intravenous glucose tolerance test (IVGTT): Normal Wistar rats are fasted overnight and are anesthetized prior to the experiment. A blood sampling catheter is inserted into the rats. The compound is given in the jugular vein. Blood samples are taken from the carotid artery. A blood sample is drawn immediately prior to the injection of glucose along with the compound. After the initial blood sample, glucose mixed with compound is injected intravenously (i.v.). A glucose challenge of 0.5 g/kg body weight is given, injecting a total of 1.5 mL vehicle with glucose and agonist per kg body weight. The peptide concentration vary to produce the desired dose in μg/kg. Blood samples are drawn at 2, 4, 6 and 10 minutes after giving glucose. The control group of animals receives the same vehicle along with glucose, but with no compound added. In some instances, a 30 minute post-glucose blood sample is drawn. Aprotinin is added to the blood sample (250 kIU/ml blood). The serum is then analyzed for glucose and insulin using standard methodologies.
The assay uses a formulated and calibrated peptide stock in PBS. Normally, this stock is a prediluted 100 μM stock. However, a more concentrated stock with approximately 1 mg agonist per mL is used. The specific concentration is always known. Variability in the maximal response is mostly due to variability in the vehicle dose.

human VPAC2 [3] = biological target: T3, human VPAC2 (Homo sapiens, UniProt P41587); assay: DiscoveRx cAMP in vitro potency, CHO-S cell line stably expressing human VPAC2 receptor; type: cell-based; details: cAMP generation; mean of two independent runs
T3 construct: expressed in transfected cells
T3 sequence (P41587 24-438): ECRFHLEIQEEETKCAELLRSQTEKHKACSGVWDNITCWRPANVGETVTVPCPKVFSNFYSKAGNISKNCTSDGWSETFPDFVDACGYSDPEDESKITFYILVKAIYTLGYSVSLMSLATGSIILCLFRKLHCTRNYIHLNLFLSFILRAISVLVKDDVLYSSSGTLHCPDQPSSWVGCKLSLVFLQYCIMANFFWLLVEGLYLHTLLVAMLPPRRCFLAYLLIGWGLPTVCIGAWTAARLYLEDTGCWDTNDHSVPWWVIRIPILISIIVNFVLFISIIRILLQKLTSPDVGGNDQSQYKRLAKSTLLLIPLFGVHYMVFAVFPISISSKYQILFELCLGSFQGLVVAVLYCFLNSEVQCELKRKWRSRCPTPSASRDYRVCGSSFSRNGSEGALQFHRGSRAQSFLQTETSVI
Experimental: as §1

human VPAC1 [4] = biological target: T1, human VPAC1; assay: Filter binding assay, membranes of cells transiently transfected with human VPAC1, 125I-labeled VIP tracer (Table 2); parameters: expressed in transfected cells; details: read-out: Human VPAC1 Receptor Binding
Summary of the method: (§2)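 Radioligand displacement was measured with 2.5 μg membrane protein per well and roughly 40000 cpm of iodinated tracer. After a 1-hour incubation, bound and free label were separated on BSA-blocked glass-fibre filters and quantified by scintillation.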

human VPAC2 [5] = biological target: T3, human VPAC2; assay: Filter binding assay, membranes of stable VPAC2 cell line, 125I-labeled VIP tracer (Table 2); details: read-out: Human VPAC2 Receptor Binding
Summary of the method: as §2

rat VPAC1 receptor = biological target: T4, rat VPAC1 receptor (Rattus norvegicus, UniProt P30083); assay: DiscoveRx in vitro potency, CHO-PO cells transiently transfected with rat VPAC 1 receptor DNA; type: cell-based; parameters: expressed in transfected cells; host or cells: CHO-PO, transient
T4 sequence (P30083 31-459): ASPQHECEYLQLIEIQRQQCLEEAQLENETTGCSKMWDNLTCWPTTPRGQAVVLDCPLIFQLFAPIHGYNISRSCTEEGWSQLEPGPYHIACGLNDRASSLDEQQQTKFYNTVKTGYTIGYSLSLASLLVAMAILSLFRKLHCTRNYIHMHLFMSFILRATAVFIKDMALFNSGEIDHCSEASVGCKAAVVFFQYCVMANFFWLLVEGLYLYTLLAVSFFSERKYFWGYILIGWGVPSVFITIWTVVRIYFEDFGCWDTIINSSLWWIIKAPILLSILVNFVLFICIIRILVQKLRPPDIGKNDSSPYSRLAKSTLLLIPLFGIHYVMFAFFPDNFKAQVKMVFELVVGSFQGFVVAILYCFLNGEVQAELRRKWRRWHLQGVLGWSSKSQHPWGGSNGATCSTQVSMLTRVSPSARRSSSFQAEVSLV
Experimental: (§3) Also, the cells are washed twice. […] The stimuli are present for 30 minutes. Then, the assay buffer is gently removed.

human PAC1 [6] = biological target: T2, human PAC1; assay: Filter binding assay, membranes of cells transiently transfected with human PAC1, 125I-labeled PACAP-27 tracer (Table 2); parameters: expressed in transfected cells; details: read-out: Human PAC1 Receptor Binding
Summary of the method: as §2

human VPAC2 [7] = biological target: T3, human VPAC2; assay: Alpha screen cAMP in vitro potency, human VPAC2 receptor; type: cell-based; details: cAMP generation; single result from two analyses performed in a single run; read-out: Human VPAC2 Receptor: Alpha Screen EC50
Summary of the method: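 Cells were detached with enzyme-free dissociation buffer, washed into stimulation buffer and used at 50,000 cells per data point. Stimuli and AlphaScreen acceptor beads were added for 60 minutes, then lysis buffer with donor beads for 60 to 120 minutes; the AlphaScreen signal reports intracellular cAMP.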

rat VPAC2 receptor = biological target: T5, rat VPAC2 receptor (Rattus norvegicus, UniProt P35000); assay: DiscoveRx in vitro potency, CHO-PO cells transiently transfected with rat VPAC 2 receptor DNA; type: cell-based; parameters: expressed in transfected cells; host or cells: CHO-PO, transient
T5 sequence (P35000 23-437): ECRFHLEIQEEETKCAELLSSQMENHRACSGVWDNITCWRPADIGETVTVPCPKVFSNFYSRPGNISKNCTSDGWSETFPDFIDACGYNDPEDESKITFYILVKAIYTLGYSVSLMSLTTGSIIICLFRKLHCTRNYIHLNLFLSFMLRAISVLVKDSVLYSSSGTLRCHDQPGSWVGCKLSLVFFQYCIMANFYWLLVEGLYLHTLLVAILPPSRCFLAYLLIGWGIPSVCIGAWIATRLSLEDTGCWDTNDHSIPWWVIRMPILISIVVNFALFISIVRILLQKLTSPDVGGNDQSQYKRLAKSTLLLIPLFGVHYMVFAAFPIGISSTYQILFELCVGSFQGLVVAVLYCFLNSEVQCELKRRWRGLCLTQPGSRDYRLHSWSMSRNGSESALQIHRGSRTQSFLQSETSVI
Experimental: as §3

[8] = Rat serum stability studies (remaining active peptide by DiscoveRx cAMP on CHO-VPAC2 cells); type: in vitro ADME
Summary of the method: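 EC50 from a DiscoveRx cAMP read-out on CHO-VPAC2 cells indexes how much peptide stays active after 18 h in rat serum at 37° C without aprotinin, against an aprotinin-protected 4° C aliquot.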

[9] = cAMP generation, mean of two independent runs, read-out: Human VPAC1 Receptor: DiscoveRx EC50
[10] = cAMP generation, mean of two independent runs, read-out: Human PAC1 Receptor: DiscoveRx EC50

Substance | EC50 (human VPAC1 [1]; [9]) [nM] | EC50 (human VPAC2 [3]) [nM] | IC50 (human VPAC1 [4]) [nM] | IC50 (human VPAC2 [5]) [nM] | further results
H-HSDAVFTDNYTRFRKQVAAKKYLQSIKNKRYGGPSSGAPPPS [Agonist P26] | 0.9 |  |  |  | 
HSDVVFTDNYTRLRKQVAAKKYLQSIKNKRYGGPSSGAPPPS [Agonist P53] |  |  |  |  | EC50 (human VPAC1 [1]): 118 nM; EC50 (human PAC1 [2]): > 1000 nM
HVDAVFTDNYTRLRKQVAAKKYLQSIKNKRYGGPSSGAPPPS [Agonist P44] |  | 0.92 |  |  | % increase AUC: Dose = 0.1 μg/kg (Normal Wistar rats; 0.1 μg/kg): 19%; % increase AUC: Dose = 10 μg/kg (Normal Wistar rats; 10 μg/kg): 194%
H-HSDAVTTDNYTRLRKQVAAKKYLQSIKNKRYGGPSSGAPPPS [Agonist P65] | > 1000 | > 1000 |  |  | EC50 (human PAC1 [2]; [10]): 0.7 nM
HSDAVVTDNYTRLRKQVAAKKYLQSIKNKRYGGPSSGAPPPS [Agonist P66] | < 1000 | > 1000 |  |  | 
HSDAVLTDNYTRLRKQVAAKKYLQSIKNKRYGGPSSGAPPPS [Agonist P64] | 221 | > 1000 |  |  | 
HSDAVFTDNYTRLRKQVAAKKYLQSIKNKRF [Agonist P34] | 0.8 |  | 79.2 | 0.92 | 
Hexanoyl-HSDAVFTDNYTRLLAKVAAKKYLQSIKNKRYGGPSSGAPPPS [Agonist P135] |  |  | 251 | 0.43 | EC50 (rat VPAC1 receptor): 0.02 nM; IC50 (human PAC1 [6]): 748 nM; EC50 (human VPAC2 [7]): 0.18 nM; EC50 (rat VPAC2 receptor): 0.05 nM
Hexanoyl-HSEAVFTENYTRLR[Aib]QVAA[Aib]KYLQSIKNKRYGGPSSGAPPPS [Agonist P314] |  |  | > 3000 | 0.57 | EC50 (rat VPAC1 receptor): 29.2 nM; IC50 (human PAC1 [6]): > 25000 nM; Rat Serum Stability (estimated purity in % after 18 hours) [8]: 8.44%; EC50 (human VPAC2 [7]): 0.22 nM
Hexanoyl-HSDAVFTDNYTRL[Aib]KQVAAK[Aib]YLQSIKNKRYGGPSSGAPPPS [Agonist P244] |  |  | > 3000 | 26.9 | EC50 (rat VPAC1 receptor): 127 nM; IC50 (human PAC1 [6]): > 25000 nM; Rat Serum Stability (Estimated purity in % after 72 hours) [8]: 6.2%; Rat Serum Stability (estimated purity in % after 18 hours) [8]: 30.64%
HSDAVFTDNYTRLRKQVAAKKYLQSIRNKRYGGPSSGAPPPS [Agonist P23] | 0.9 | 1.41 | 150 | 0.92 | 
HSDAVFTDNYTRLRKQVAAKKYLQSIKNKIYGGPSSGAPPPS [Agonist P76] | 0.8 |  |  |  | 
H-HSDAVFTDNYTRLRKQVAAKKYLQSI[hArg]NKRYGGPSSGAPPPS [Agonist P22] | 0.9 |  | 123 | 0.87 | 
HSDAVITDNYTRLRKQVAAKKYLQSIKNKRYGGPSSGAPPPS [Agonist P63] | > 1000 | > 1000 |  |  | 
H-HSDLVFTDNYTRLRKQVAAKKYLQSIKNKRYGGPSSGAPPPS [Agonist P55] | 134 |  |  |  | EC50 (human PAC1 [2]; [10]): > 1000 nM
